Measured values reported in paper PMC7217877, “N-AS-triggered SPMs are direct regulators of microglia in a model of Alzheimer’s disease” (Nature Communications, 2020).
Several values for one entry are separate records, joined by “and”; a condition that tells them apart may be missing. Identical values can stand only once.

What was measured:
APP/PS1 mice = assay: open field test (Supplementary Fig 7f-i); assay type: in vivo, mouse; design: open field test, sFig 7f (sheet untitled): unit not given here
Procedure: Transgenic mouse lines over-expressing the hAPP695swe (APP) and presenilin-1M146V (PS1) mutations were originated from GlaxoSmithKline (Harlow, UK)[32] and maintained as described previously. We purchased 5×FAD mice from Jackson Labs (Stock number. 34840-JAX). Because APP/PS1 and 5xFAD mice show sex differences in disease progression, we used only male mice. To examine possible therapeutic effect of N-AS and aspirin in APP/PS1 mice, the N-AS (30 mg kg^−1, Sigma-Aldrich, 01912) was injected daily s.c. for 8 weeks to 7-months-old APP/PS1 mice until the age of 9 months, and aspirin (2 mg kg^−1, Sigma-Aldrich, A5376)[33] was administrated orally to 7-months-old APP/PS1 mice for 8 weeks. […] Block randomization method was used to allocate the animals to experimental groups. To eliminate the bias, we were blinded in experimental progress such as data collection and data analysis. Mice were housed at temperature of 22 °C and a 12 h day/12 h night cycle with free access to tap water and food pellets. All protocols were approved by the Kyungpook National University Institutional Animal Care and Use Committee. […] Freezing was analyzed for 5 min. […] Overall activity in the box was measured, and the amount of time and distance traveled in the center arena was noted. […] The total number of transitions, latency to first enter the light chamber, distance traveled, and time spent in each chamber were recorded.

astrocyte = assay: immunofluorescence of ac-S565 and COX2 in primary cells; assay type: cell-based, C57BL/6 mice; settings: Ab 10mM, replicates
Procedure: To confirm the generation and roles of N-AS in neurons, cells from E18 C57BL/6 mice were prepared as previously described. Cortices were dissected and then dissociated followed by incubation in papain (Worthington) at 37 °C for 15 min. Neurons were plated on poly-L-lysine-coated coverslips with neuronal culture medium, serum-free Neurobasal medium (Gibco) containing 2% B27 supplements (Gibco), 1 mM Glutamax supplement (Gibco), and 100 U ml^−1 streptomycin/ 100 U ml^−1 penicillin (Gibco) at 37 °C in a humidified atmosphere of 5% CO2. Aβ 1–42 (10 μM, 24 h, Invitrogen, 03112) was exposed to neurons and the cells were analyzed for the generation and roles of N-AS. Primary astrocyte cultures were prepared from C57BL/6 mice as described previously. […] The human microglia treated with Aβ 1–42 and/or zileuton was incubated with N-AS (2.5 μM, 2 h, Sigma-Aldrich, 01912), and were analyzed for the generation and roles of N-AS.
Thioflavin S (Sigma-Aldrich) staining was carried out according to previously described procedures. […] The sections were analyzed with a laser-scanning confocal microscope (FV3000; Olympus) or with a BX51 microscope (Olympus). MetaMorph software (Molecular Devices) was used to quantification. Three-dimensional reconstruction of microglia was recorded and analyzed using IMARIS software (Bitplane)[11]. […]

| Compound | open field test, sFig 7f (sheet untitled) (APP/PS1 mice; APP/PS1 + N-AS, sums to 600 with sFig 7g) | locomotion and spontaneous activity, open field test (APP/PS1 mice; N-AS vs APP/PS1) | ac-S565 with COX2, immunofluorescence quantification (Fig 3c) (astrocyte) |
| --- | --- | --- | --- |
| CCCCCCCCCCCCC/C=C/[C@@H](O)[C@H](CO)NC(C)=O [N-AS, N-((2S,3R,E)-1,3-Dihydroxyoctadec-4-en-2-yl)acetamide] | 520.5 and 509.5 and 517.5 and 503.5 and 522.5 and 508 and 406.5 and 460.5 | improved locomotion and spontaneous activity | – |
| Ab: Aβ 1–42 (Invitrogen, 03112) used to induce an AD environment in cells | – | – | 0.03307 and 0.0783 and 0.03875 and 0.05053 and 0.0718 and 0.07636 |
